Test [1] concerns triplex DNA (DNA-1, DNA-2, DNA-3). As to the kind of experiment: UV melting (260 nm) of unmodified triplex DNA-1, DNA-2, DNA-3 (no nanoparticles). The format is binding. To be noted: solution-phase unmodified DNA, 1 μM each strand, 6 μM binder, 0.5 M NaCl 10 mM PBS. As for the experimental part:
To compare the results from the previous examples with more traditional screening techniques, all eight intercalators were screened, plus a control, by monitoring UV absorbance melting curves (260 nm) of unmodified DNA-1, DNA-2, and DNA-3 (1 μM each), with each intercalator (10 μM), (DNA-1; 3′ TTCTTCTTTTTT CT-5′. DNA-2: 5′-TTCTTCTTTTTTCT-3′, DNA-3: 5′-AAGAAGAAAAAA-3′). (FIG. 2B). The melting experiment performed in the presence of BePl has two melting transitions. The first Tm at 34.8° C. is associated with the denaturation of the triplex structure and the second Tm at 61.4° C. is representative of the corresponding duplex.
To determine the Tm of the duplex DNA in the presence of DNA binders, 2 μM duplex DNA and 5 μM DNA binder were combined in 0.3 M NaCl 10 mM PBS. To determine the Tm of the triplex DNA in the presence of DNA binders, 1 μM of each strand and 6 μM of each DNA binder were combined in 0.5 M NaCl 10 mM PBS. UV-vis melting curves were measured on a CARRY 500 spectrophotometer equipped with a circulating bath. The melting process was monitored by measuring the change in extinction at 260 nm. The solutions were stirred continuously with a magnetic stir bar as the solution temperature was increased at a rate of 0.5° C./min. The first derivative generated from the melting curves was used to determine the Tm.
A melting transition associated with the triple helix was found only for experiments performed in the presence of BePI (34.8° C.) and CORA (17.1° C.) where BePI is determined to be the stronger binder. This is in agreement with the results determined by the chip-based scanometric method described above.

Test [2] relates to triplex DNA on chip surface. Nature of the test: Chip-based scanometric detection of triplex DNA binders (silver enhancement). The format is binding. Particulars: 0.3 M NaCl, binder 5 μM, DNA-3 150 nM. As for the experimental part: For scanometric detection of duplex or triplex DNA binding molecules, Au nanoparticles (1 nM) and DNA binding molecules (5 μM) in 10 mM PBS buffer of varying NaCl concentrations were added to the microarray slide under hybridization wells (Nanosphere, Inc.). For detection of triplex binders, 150 nM DNA-3 was added. DNA hybridization proceeded for 30 min (for duplex DNA binders) or 1 h (for triplex DNA binders) in a humidity chamber. After hybridization, the slides were washed three times with 0.5 M NaNO3 containing 0.02% Tween 20. The arrays were dried using a benchtop spinner. Silver enhancement solution (Nanosphere, Inc.) was added for Au-NP signal amplification (1 mL total volume/array, 1.5-min development time for duplex DNA binding molecules and 3 min for triplex binding molecules). The reaction was terminated by washing the slides with NANOpure® water and spin-drying. Light-scattering images from the silver-enhanced chips were recorded using the high-resolution Verigene ID system (Nanosphere, Inc.).
Capture strands of synthetic oligonucleotides are patterned on a glass chip using a microarrayer. The DNA chip is then exposed to a solution containing three components: 1) complementary DNA (no nanoparticles), 2) DNA functionalized Au nanoparticles (DNA is non-complementary to the arrayed DNA) and 3) DNA binders, Scheme 4. The complementary solution-phase DNA, called DNA-3 in Scheme 2, hybridizes to the DNA on the chip surface and forms a duplex. The Au nanoparticle-bound DNA has the correct sequence to form a triplex with the surface bound duplex through sequence-specific Hoogsteen, or reverse Hoogsteen, base pairing. The triplex structure is relatively unstable at room temperature and will only form in the presence of triplex DNA binding molecules. The presence of the triplex DNA binding molecules increase the stability of the triplex, immobilizing the Au nanoparticles on the chip surface. The chip was then exposed to silver enhancement solution for further signal enhancement and then imaged using a Verigene ID scanner.
The assay was performed in the presence of two triplex binders, coralyn (CORA) and benzo[e]pyridoindole (BePI), seven duplex DNA binders, 4′,6-diamidino-2-phenylindole (DAPI), ellipticine (EIPT), amsacrine (AMSA), daunorubicin (DNR), anthraquinone-2-carboxylic acid (AQ2A), ethidium bromide (EB), and 9-aminoacridine (9-AA))., and one control (no DNA-3). Similar to the DNA duplex, the formation of the DNA triplex is a reversible process which is affected by both temperature and salt concentration. However, compared to the duplex, the stability of the triplex is much more sensitive to salt concentration. Therefore, to determine the relative binding strength of the triplex DNA binders, the assay was performed at varying salt concentrations, FIG. 7. At 0.3 M NaCl, both the strong (BePI) and weaker (CORA) triplex binders show signal.

As for `COc1cc2cc3c4cc(OC)c(OC)cc4cc[n+]3c(C)c2cc1OC` [CORA, coralyn], the “Tm 2-1” value in test [1] (duplex melting transition) amounted to 60.1 °C. Moreover, in test [1] (triple helix melting transition, ND read as not detected), the Tm3-2 is 17.1 °C. In addition, in test [2], the scanometric signal entry was “show signal”.

(Values after patent publication US20090221095A1, “Colorimetric Screening of DNA Binding/Intercalating Agents with Gold Nanoparticle Probes” (NORTHWESTERN UNIVERSITY, priority 2005, published 2009).)
